Reference: patent US11078127B2, “Organically chelated mineral compositions and methods thereof” (Ralco Nutrition, Inc., priority 2009, dated 2021)

Experiments:
[1] = test system: grass; assay: Growth of grass with cobalt lactate applied in the soil or sprayed (Example 1, Table 1); type: in vivo
From the text: In Table 1, the growth of grass when cobalt lactate was applied either in the soil (before seeding) or sprayed directly onto the grass once growing is shown for the various levels of cobalt (0, 1, 10, 100 and 1000 ppm) that was applied. Following growth 2, cuttings were made then the total weight of grass was shown for the various treatments. […] All work was done with a fully complete soil with respect to nitrogen, phosphorus and potash (Miracle Gro Soil), so that the only difference in the greenhouse flats was the applied cobalt level and the manner in which it was applied.

[2] = test system: Food Plot Clover Mix; assay: Greenhouse flats, plant growth (sprouts, harvest weight, % of control): Food Plot Clover Mix, Flats 1-16 (Tables 2, 3); type: in vivo, mixture of clovers; details: Flat 13, Clover Mix 5.2 g seed/flat
Description: (§1) Sixty-four sample flats were analyzed. Empty flats were filled with about 0.25 cubic feet of Miracle Gro Soil per flat (a complete soil with enough macro-nutrients, nitrogen, phosphorus and potash to feed the plants for 3-4 months). The seeds were planted and then the seeded soil treated. Flats were watered daily. Progress was documented weekly. This number of flats resulted from running a number of positive controls and several levels of the chelated cobalt lactate per plant selection or choice.
(§2) The makeup of 64 flats was 8 sections times 8 flats per section. The first 8 flats were planted with a mixture of clovers. Flats 9-16 were also planted with the clover mixture at 5.2 grams seed/flat versus 2.6 grams seed/flat in 1-8. Flats 17-24 were planted with Fast & Fine Seed at 2.6 grams/flat, equivalent to the seeding rate from 2008. Fast & Fine Premium Grass Seed is a commercial mixture of Indy Perennial Ryegrass, Silver Dollar Perennial Ryegrass, Boreal Creeping Red Fescue, Kelly Kentucky Bluegrass and Clearwater Kentucky Bluegrass. Flats 25-32 were planted with a mixture including green globe turnips, dwarf Essex forage rapeseed, Rangi forage and giant rapeseed. Flats 33-40 were planted with a mixture of seeds including hybrid sunflower, grain sorghum, Proso millet and buck-wheat, at 5.2 grams/flat. […]

[3] = test system: Fast & Fine Premium Grass Seed; assay: Greenhouse flats, plant growth: Fast & Fine Grass seed, Flats 17-24 (Table 4); type: in vivo, Perennial Ryegrass, Creeping Red Fescue, Kentucky Bluegrass; details: 1 ppm applied to the soil; second year
Description: as §1, §2

[4] = test system: ruminal microorganisms; assay: Effect of cobalt on methane, pH, ammonia-N, and digestibility in continuous cultures of ruminal microorganisms (Table 10); type: cell-based; details: for IVDMTD (in vitro dry matter true digestibility), %: 24 h incubation; for Culture pH, Post-feeding / Methane, nmol/ml, Post-feeding: average of samples at 1, 2, 4 and 6 h after AM feeding; for Culture pH, Pre-feeding / Methane, nmol/ml, Pre-feeding: samples taken at 0 hours
Description: Ammonia-N concentrations were not affected (P>0.10) by dietary treatments. […] There was a source x level interaction (P<0.001) for neutral detergent fiber (NDF) digestibility (Table 6). […] Earlier studies reported no effect on DM and NDF digestibility when Co was added at the 5.0 or 10.0 ppm levels.

[5] = Cobalt Medium DI H2O (spray), Target Cobalt Level 1 ppm
[6] = Cobalt Medium DI H2O (spray), Target Cobalt Level 10 ppm
[7] = Cobalt Medium DI H2O (spray), Target Cobalt Level 100 ppm
[8] = Cobalt Medium DI H2O (spray), Target Cobalt Level 1000 ppm
[9] = Cobalt Medium Soil, Target Cobalt Level 1 ppm
[10] = Cobalt Medium Soil, Target Cobalt Level 10 ppm
[11] = Cobalt Medium Soil, Target Cobalt Level 100 ppm
[12] = Cobalt Medium Soil, Target Cobalt Level 1000 ppm

CC(O)C(=O)[O-].CC(O)C(=O)[O-].[Co+2] (stereo not shown) [cobalt lactate]
Grass Cuttings Weight (gms, 1st) [1, 5]: 15.7 gms
Grass Cuttings Weight (gms, 2nd) [1, 5]: 13.9 gms
Sum Grass Cuttings Weight (gms, 1st + 2nd) [1, 5]: 29.6 gms
Grass Cuttings Weight (gms, 1st) [1, 6]: 17.76 gms
Grass Cuttings Weight (gms, 2nd) [1, 6]: 14.37 gms
Sum Grass Cuttings Weight (gms, 1st + 2nd) [1, 6]: 32.13 gms
Grass Cuttings Weight (gms, 1st) [1, 7]: 18.56 gms
Grass Cuttings Weight (gms, 2nd) [1, 7]: 26.57 gms
Sum Grass Cuttings Weight (gms, 1st + 2nd) [1, 7]: 45.13 gms
Grass Cuttings Weight (gms, 1st) [1, 8]: 24.03 gms
Grass Cuttings Weight (gms, 2nd) [1, 8]: 15.44 gms
Sum Grass Cuttings Weight (gms, 1st + 2nd) [1, 8]: 39.47 gms
Grass Cuttings Weight (gms, 1st) [1, 9]: 31.06 gms
Grass Cuttings Weight (gms, 2nd) [1, 9]: 22.73 gms
Sum Grass Cuttings Weight (gms, 1st + 2nd) [1, 9]: 53.79 gms
Grass Cuttings Weight (gms, 1st) [1, 10]: 22.8 gms
Grass Cuttings Weight (gms, 2nd) [1, 10]: 31.41 gms
Sum Grass Cuttings Weight (gms, 1st + 2nd) [1, 10]: 54.21 gms
Grass Cuttings Weight (gms, 1st) [1, 11]: 16.33 gms
Grass Cuttings Weight (gms, 2nd) [1, 11]: 10.12 gms
Sum Grass Cuttings Weight (gms, 1st + 2nd) [1, 11]: 26.45 gms
Grass Cuttings Weight (gms, 1st) [1, 12]: 5.15 gms
Grass Cuttings Weight (gms, 2nd) [1, 12]: 1.81 gms
Sum Grass Cuttings Weight (gms, 1st + 2nd) [1, 12]: 6.96 gms
Growth of grass ([1]; applied in the soil at 1 or 10 ppm or applied by spray at 100 ppm): roughly doubled
Growth ahead of the positive control (Delt Ag) [2]: 13%
Grass growth [3]: double the grass growth

O=C([O-])[O-].[Co+2] [Cobalt Carbonate, cobalt carbonate]
Ammonia-N ([4]; 0.2 ppm): 10.79 mg/dL
NDF Digestibility, % ([4]; 0.2 ppm): 23.16%
IVDMTD (in vitro dry matter true digestibility), % ([4]; 0.2 ppm): 59.35%
Culture pH, Post-feeding ([4]; 0.2 ppm): 5.56
Methane, nmol/ml, Post-feeding ([4]; 0.2 ppm): 403.14 nmol/mL
Culture pH, Pre-feeding ([4]; 0.2 ppm): 5.81
Methane, nmol/ml, Pre-feeding ([4]; 0.2 ppm): 363.91 nmol/mL
Ammonia-N ([4]; 1.0 ppm): 10.88 mg/dL
NDF Digestibility, % ([4]; 1.0 ppm): 17.09%
Effect on NDF digestibility ([4]; 1.0 ppm level): negative effect
IVDMTD (in vitro dry matter true digestibility), % ([4]; 1.0 ppm): 59.17%
Culture pH, Post-feeding ([4]; 1.0 ppm): 5.55
Methane, nmol/ml, Post-feeding ([4]; 1.0 ppm): 515.35 nmol/mL
Culture pH, Pre-feeding ([4]; 1.0 ppm): 5.88
Methane, nmol/ml, Pre-feeding ([4]; 1.0 ppm): 347.82 nmol/mL
Effect on methane concentration ([4]; continuous cultures, P>0.10 for no effect): significant negative impact
